According to article PMC7023430, “4-Aminobenzoic Acid Derivatives: Converting Folate Precursor to Antimicrobial and Cytotoxic Agents” (Biomolecules, 2019):
pIC50: −log10 of the molar value. Values after ≈ are worked out from the molar mass of the structure shown. Where two headings read alike, the source gives them in different places.

What was measured:
[1] = tested on: Aspergillus fumigatus 231; test: Antifungal microdilution broth method, A. fumigatus; type: cell-based
In short: (§1)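 MICs were scored by eye in duplicate runs, accepted when the two differed by no more than one twofold step. Medium was RPMI-1640 (L-glutamine, 2% glucose) buffered with MOPS at pH 7.0, with DMSO-dissolved compounds serially halved per modified EUCAST protocol.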

Candida tropicalis 156 = test: Antifungal microdilution broth method, C. tropicalis; type: cell-based
In short: as §1

[2] = tested on: Klebsiella pneumoniae D 11750/08; test: Antibacterial microdilution broth method, K. pneumoniae; conditions: K. pneumoniae D 11750/08; for MIC KP 24 h: 24 h incubation; for MIC KP 48 h: 48 h incubation
[3] = tested on: Mycobacterium kansasii 235/80; test: Antimycobacterial micromethod in Šula's medium, M. kansasii 235/80; type: cell-based
[4] = tested on: Trichophyton interdigitale 445; test: Antifungal microdilution broth method, T. interdigitale; type: cell-based
In short: as §1

[5] = tested on: methicillin-resistant Staphylococcus aureus ATCC 43300, CCM 4750 (MRSA); test: Antibacterial microdilution broth method, MRSA; type: cell-based; conditions: Staphylococcus aureus
[6] = tested on: Lichtheimia corymbifera 272; test: Antifungal microdilution broth method, L. corymbifera; type: cell-based
In short: as §1

[7] = tested on: Candida albicans ATCC 44859; test: Antifungal microdilution broth method, C. albicans; type: cell-based
In short: as §1

Candida krusei E28 = test: Antifungal microdilution broth method, C. krusei; type: cell-based; conditions: Pichia kudriavzevii
In short: as §1

[8] = tested on: ESBL-positive Klebsiella pneumoniae J 14368/08
[9] = tested on: Pseudomonas aeruginosa ATCC 27853, CCM 3955; test: Antibacterial microdilution broth method, P. aeruginosa; type: cell-based; conditions: Pseudomonas aeruginosa, P. aeruginosa
[10] = tested on: Staphylococcus epidermidis H 6966/08; test: Antibacterial microdilution broth method, S. epidermidis; type: cell-based; conditions: Staphylococcus epidermidis, H6966/08
[11] = tested on: Staphylococcus aureus ATCC 29213, CCM 4223; test: Antibacterial microdilution broth method, S. aureus; type: cell-based
[12] = tested on: M. kansasii 6509/96 (clinical isolate); test: Antimycobacterial micromethod in Šula's medium, M. kansasii 6509/96; type: cell-based; conditions: Mycobacterium kansasii
HepG2 cells = test: Cytotoxicity, CellTiter 96 assay; type: cell-based, human; conditions: Homo sapiens, HepG2, 24 h, 24 h incubation
In short: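 HepG2 cells (10,000/well) exposed 24 h at 37 °C, 5% CO2 to compounds in DMSO (≤1% v/v final), triplicates. Viability by tetrazolium-to-formazan reduction (CellTiter 96 AQueous One), absorbance 490 nm after 2 h. IC50 from nonlinear regression versus untreated controls; 10% DMSO defined 0% viability.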

Candida glabrata 20/I = test: Antifungal microdilution broth method, C. glabrata; type: cell-based; conditions: Nakaseomyces glabratus
In short: as §1

[13] = 235/80, 168 h, 7 days incubation at 37 °C, read-out: MIC M. kansasii 235/80 7 d
[14] = 235/80, 336 h, 14 days incubation at 37 °C, read-out: MIC M. kansasii 235/80 14 d
[15] = 235/80, 504 h, 21 days incubation at 37 °C, read-out: MIC M. kansasii 235/80 21 d
[16] = 24 h incubation, read-out: MIC MRSA 24 h
[17] = 48 h incubation, read-out: MIC MRSA 48 h
[18] = ATCC44859, 24 h, read-out: MIC CA 24 h
[19] = ATCC44859, 48 h, read-out: MIC CA 48 h
[20] = 24 h incubation, read-out: MIC PA 24 h
[21] = 48 h incubation, read-out: MIC PA 48 h
[22] = S. epidermidis, 24 h incubation, read-out: MIC SE 24 h
[23] = S. epidermidis, 48 h incubation, read-out: MIC SE 48 h
[24] = 24 h incubation, read-out: MIC SA 24 h
[25] = 48 h incubation, read-out: MIC SA 48 h
[26] = 168 h, 7 days incubation at 37 °C, read-out: MIC M. kansasii 6509/96 7 d
[27] = 336 h, 14 days incubation at 37 °C, read-out: MIC M. kansasii 6509/96 14 d
[28] = 504 h, 21 days incubation at 37 °C, read-out: MIC M. kansasii 6509/96 21 d

SMILES | MIC ([1]; 24 h, read-out: MIC AF 24 h) [µM] | MIC ([1]; 48 h, read-out: MIC AF 48 h) [µM] | MIC (Candida tropicalis 156; 24 h, read-out: MIC CT 24 h) [µM] | MIC (Candida tropicalis 156; 48 h, read-out: MIC CT 48 h) [µM] | MIC KP 24 h [2] [µM] | MIC KP 48 h [2] [µM] | MIC [3, 13] [µM] | MIC [3, 14] [µM] | MIC [3, 15] [µM] | MIC ([4]; 72 h, read-out: MIC TI 72 h) [µM] | MIC ([4]; 120 h, read-out: MIC TI 120 h) [µM] | MIC [5, 16] [µM] | MIC [5, 17] [µM] | MIC ([6]; 24 h, read-out: MIC LC 24 h) [µM] | MIC ([6]; 48 h, read-out: MIC LC 48 h) [µM] | MIC [7, 18] [µM] | MIC [7, 19] [µM] | MIC (Candida krusei E28; 24 h, read-out: MIC CK 24 h) [µM] | MIC (Candida krusei E28; 48 h, read-out: MIC CK 48 h) [µM] | MIC KP-E 24 h [8] [µM] | other results
O=C(O)c1ccc(N=Cc2cccc(Cl)c2O)cc1 [1m, 4-[(3-Chloro-2-hydroxybenzylidene)amino]benzoic acid] | 250 (≈ 68.9 µg/mL) | 250 (≈ 68.9 µg/mL) | 62.5 (≈ 17.2 µg/mL) | 62.5 (≈ 17.2 µg/mL) | >500 | >500 | 500 (≈ 138 µg/mL) | 500 (≈ 138 µg/mL) | 500 (≈ 138 µg/mL) | 125 (≈ 34.5 µg/mL) | 125 (≈ 34.5 µg/mL) | > 500 | > 500 | 500 (≈ 138 µg/mL) | 500 (≈ 138 µg/mL) | 31.2 (≈ 8.62 µg/mL) | 31.2 (≈ 8.62 µg/mL) | 250 (≈ 68.9 µg/mL) | 250 (≈ 68.9 µg/mL) | >500 | MIC KP-E 48 h [8]: >500 µM; MIC [9, 20]: > 500 µM; MIC [9, 21]: > 500 µM; MIC [10, 22]: 500 µM (≈ 138 µg/mL); MIC [10, 23]: 500 µM (≈ 138 µg/mL); MIC ([10]; time not stated, read-out: MIC, S. epidermidis): ≥ 250 µM; MIC [11, 24]: > 500 µM; MIC [11, 25]: > 500 µM; MIC [12, 26]: 250 µM (≈ 68.9 µg/mL); MIC [12, 27]: 500 µM (≈ 138 µg/mL); MIC [12, 28]: 500 µM (≈ 138 µg/mL); pIC50 (HepG2 cells): 3.61; MIC (Candida glabrata 20/I; 24 h, read-out: MIC CG 24 h): 62.5 µM (≈ 17.2 µg/mL); MIC (Candida glabrata 20/I; 48 h, read-out: MIC CG 48 h): 62.5 µM (≈ 17.2 µg/mL)
O=C(O)c1ccc(N=Cc2cc(Cl)cc(Cl)c2O)cc1 [1n, 4-[(3,5-Dichloro-2-hydroxybenzylidene)amino]benzoic acid] | 500 (≈ 155 µg/mL) | 500 (≈ 155 µg/mL) | 250 (≈ 77.5 µg/mL) | 250 (≈ 77.5 µg/mL) | >500 | >500 | 500 (≈ 155 µg/mL) | 500 (≈ 155 µg/mL) | 500 (≈ 155 µg/mL) | 250 (≈ 77.5 µg/mL) | 250 (≈ 77.5 µg/mL) | 250 (≈ 77.5 µg/mL) | 250 (≈ 77.5 µg/mL) | 500 (≈ 155 µg/mL) | 500 (≈ 155 µg/mL) | 125 (≈ 38.8 µg/mL) | 125 (≈ 38.8 µg/mL) | 125 (≈ 38.8 µg/mL) | 125 (≈ 38.8 µg/mL) | >500 | MIC KP-E 48 h [8]: >500 µM; MIC [9, 20]: > 500 µM; MIC [9, 21]: > 500 µM; MIC [10, 22]: 250 µM (≈ 77.5 µg/mL); MIC [10, 23]: 250 µM (≈ 77.5 µg/mL); MIC [11, 24]: 125 µM (≈ 38.8 µg/mL); MIC [11, 25]: 125 µM (≈ 38.8 µg/mL); MIC [12, 26]: 250 µM (≈ 77.5 µg/mL); MIC [12, 27]: 500 µM (≈ 155 µg/mL); MIC [12, 28]: 500 µM (≈ 155 µg/mL); pIC50 (HepG2 cells): 4.01; MIC (Candida glabrata 20/I; 24 h, read-out: MIC CG 24 h): 125 µM (≈ 38.8 µg/mL); MIC (Candida glabrata 20/I; 48 h, read-out: MIC CG 48 h): 125 µM (≈ 38.8 µg/mL)
O=C(O)c1ccc(N=Cc2cc(Cl)cc(Br)c2O)cc1 [1o, 4-[(3-Bromo-5-chloro-2-hydroxybenzylidene)amino]benzoic acid] | 250 (≈ 88.6 µg/mL) | 250 (≈ 88.6 µg/mL) | 62.5 (≈ 22.2 µg/mL) | 62.5 (≈ 22.2 µg/mL) | 500 (≈ 177 µg/mL) | 500 (≈ 177 µg/mL) | 250 (≈ 88.6 µg/mL) | 500 (≈ 177 µg/mL) | 500 (≈ 177 µg/mL) | 62.5 (≈ 22.2 µg/mL) | 62.5 (≈ 22.2 µg/mL) | 31.2 (≈ 11.1 µg/mL) | 31.2 (≈ 11.1 µg/mL) | 500 (≈ 177 µg/mL) | 500 (≈ 177 µg/mL) | 31.2 (≈ 11.1 µg/mL) | 31.2 (≈ 11.1 µg/mL) | 62.5 (≈ 22.2 µg/mL) | 62.5 (≈ 22.2 µg/mL) | 500 (≈ 177 µg/mL) | MIC KP-E 48 h [8]: 500 µM (≈ 177 µg/mL); MIC [9, 20]: > 500 µM; MIC [9, 21]: > 500 µM; MIC [10, 22]: 15.6 µM (≈ 5.54 µg/mL); MIC [10, 23]: 31.2 µM (≈ 11.1 µg/mL); MIC [11, 24]: 15.6 µM (≈ 5.54 µg/mL); MIC [11, 25]: 15.6 µM (≈ 5.54 µg/mL); MIC [12, 26]: 500 µM (≈ 177 µg/mL); MIC [12, 27]: 500 µM (≈ 177 µg/mL); MIC [12, 28]: 500 µM (≈ 177 µg/mL); pIC50 (HepG2 cells): 4.07; MIC (Candida glabrata 20/I; 24 h, read-out: MIC CG 24 h): 15.6 µM (≈ 5.54 µg/mL); MIC (Candida glabrata 20/I; 48 h, read-out: MIC CG 48 h): 15.6 µM (≈ 5.54 µg/mL)
